Measured values reported in US20220017833A1, “Methods and Compositions for Scavenging Sulfides from Hydrocarbon Fluids and Aqueous Streams” (Nexgen Oilfield Chemicals, LLC, priority 2019, published 2022).

Assays:
[1] = Short Reaction Time Capacity Test; conditions: 20 g test; for Min to BT / Min to FD: 3.00 g BuOH, GIDA 6.68 g as GID, 3.32 g water
Source text: Referring now to FIG. 1, therein is schematically depicted a sulfide scavenger testing system 100 comprising a gas source 2, a flow regulator 4, gas treatment vessel 6, and a sulfide measurement device 8. In one testing embodiment, gas (not shown) is flowed from gas source 2 via gas feed piping 10 into flow regulator 4, which regulates gas flow to gas treatment vessel 6 via regulated gas feed piping 12. The regulated gas flows into gas treatment vessel 6 via a bottom inlet 14 thereof, where it comes into contact with a volume of liquid 16 comprising a sulfide scavenger system (not separately labeled). The gas, having been treated by the liquid, flows out of a top end 18 of gas treatment vessel 6 and flows into sulfide measurement device 8 via treated gas outlet piping 20.
In one embodiment, gas flow from the flow regulator 4 is controlled such that the gas is flowed into the gas treatment vessel 6 at a flow rate of 100 mL/min. up to 500 mL/min. In one embodiment, a gas sparging device, such as a fine pore frit (not shown), is utilized to better distribute the gas into the scavenger liquid. In one embodiment, the gas treatment vessel 6 contains about 20 g of a liquid H2S scavenger, such as one or more diaminols/diaminacetals in a chemical system as described above. In one aspect, to the extent possible, H2S and/or CO2 are scavenged from the gas by the scavenger and the treated (“sweet”) gas exits top end 18 of treatment vessel 6. In one embodiment, sulfide measurement device 8 monitors the concentration of H2S leaving treatment vessel 6. in the gas phase. In other embodiments (not shown), a CO2 measurement device may be similarly employed to monitor the concentration of CO2 leaving treatment vessel 6 in the gas phase.
In one embodiment, gas is flowed through sulfide scavenger testing system 100 until the outlet H2S concentration reaches a 4,000 ppm target, at which point the test is concluded. This relative time duration before the target is reached is used to compare H2S scavenger capacity given the kinetics of each sulfide scavenger system. The longer the duration, the better the capacity.
The fine bubbles produced rise slowly, providing plenty of time, plenty of surface area, and a short path through which the H2S must diffuse to the scavenger in the liquid 16. Detector 8 on the outlet line 20 is used to measure H2S concentration in the exiting gas. The times to first detection (FD), at a threshold of 15 ppm, and to complete breakthrough (BT), at the detector saturation of 4000 ppm (0.4%), are recorded. This test is designed to measure the effective scavenging capacity in applications with long contact times.
This test is the same as the Long Reaction Time Capacity Test, but without the gas sparging device, so as to produce larger bubbles, and at a higher feed rate of 200 mL/min, after the first 8 minutes at 100 mL/min. The larger bubbles rise quickly through the liquid 16, providing little time, little surface area, and a long path through which the H2S must diffuse to the scavenger in the liquid. This test is designed to measure the effective scavenging capacity in applications with short contact times. It is far more reaction rate dependent than the Long Reaction Time Capacity and so is a more critical and differentiating test.
With triazine, one H2S reacts twice with the same molecule of triazine, replacing one amine, so the rate is “first order”, meaning proportional to the concentration of triazine.

[2] = Solution Homogeneity Test; assay type: physicochemical; conditions: Table 5; glyoxy alkyl diaminol in water and MeOH only
Source text: In one aspect, as two-phase reaction products are problematic, scavenger system homogeneity is desired. The two phases could be emulsified or otherwise finely dispersed, but in practice, even fine, seemingly stable dispersions eventually separate or stratify in extended storage or critical use and are not robust enough for practical use. They are not allowed, for example, to be fed through capillaries for fear of plugging them. In this pass/fail test, a sample is held up for visual inspection in a backlit clear vial. A clear, single-phase, homogeneous solution is a pass. Anything else is a fail.

Hot Spray Fouling Test = assay type: physicochemical; conditions: Table 5; glyoxy alkyl diaminol in water and MeOH only
Source text: In many gas applications, the scavenger must by sprayed into a hot gas stream. This can create insoluble materials (“solids”) as the scavenger system evaporates and/or decomposes. These solids accumulate and foul (interfere with the function) of the vessel, line, or equipment to which the scavenger is being fed. This precludes the scavenger being used in that application. Referring now to FIG. 2, a spray test system 200 is utilized to for the Hot Spray Fouling Test. In one embodiment, an injection atomizer apparatus 22 is employed, wherein the scavenger formulation (not separately labeled) is sprayed onto a sheet 26 through an atomizing nozzle 24, like that used to introduce the scavenger into a gas line, tank, or vessel. The material is first placed in a double boiler (not shown) and brought to 180° F. The heated liquid is then placed in the injection atomizer apparatus 22 and sprayed horizontally onto an aluminum sheet 26 twelve inches away. The chemical drains gravitationally down the sheet where it is funneled into a beaker 28 for collection. If solids are observed on the sheet 26 or in the draining or collected fluid, the sample fails. If no solids are observed, it passes the test.

[3] = Eq/test GIDAc 0.114, GIDA 0.076 (8.00 g MeOH, 2.00 g BuOH)
[4] = Eq/test Triazine 0.068, GIDAc 0.157, GIDA 0.076 (7.50 g MeOH, 2.50 g BuOH)
[5] = GIDAc 8.00 g as GID, 9.00 g MeOH, 8.00 g MeOH, 2.00 g BuOH
[6] = Triazine 7.50 g + 12.50 g water, GIDAc 11.00 g as GID, 6.00 g MeOH, 7.50 g MeOH, 2.50 g BuOH

## CC(C)NC(O)C(O)NC(C)C (stereo not shown) [GIDA, 1,2-bis[(propan-2-yl)amino]ethane-1,2-diol]
[1]; [3]
  Min/Eq BT: 607 Min/Eq
  Min/Eq FD: 515 Min/Eq
[1]; [4]
  Min/Eq BT: 541 Min/Eq
  Min/Eq FD: 462 Min/Eq
[1]; [5]
  Min to BT: 46 min
  Min to FD: 39 min
[1]; [6]
  Min to BT: 41 min
  Min to FD: 35 min
[2]
  Solution Homogeneity: Pass
Hot Spray Fouling Test
  Hot Spray Fouling: Fail
